Measurements published in patent publication US4381305A, “Ethylenediamine derivatives and pharmaceutical compositions containing same” (Simes S.p.A., priority 1980, dated 1983).

System: rabbit's isolated aorta
Test: KCl-induced contraction of the rabbit's isolated aorta (antispasmodic activity on the smooth muscles)
Assay type: cell-based
Details: Oryctolagus cuniculus, Godfraind method, read-out: ED50 (the source's name)
Excerpt: The compounds of the present invention are endowed with antispasmodic activity on the smooth muscles with has been established with the test of KCl--induced contraction of the rabbit's isolated aorta according to Godfraind and coll. (Arch. Int. Pharmacodyn., 172, 235, 1968).

Row | IC50 [µg/mL] | SMILES
1 | 1.3 | COc1cc(CN(C)CCN(C)CCC(c2ccccc2)c2ccccc2)cc(OC)c1OC [N1,N2-dimethyl-N1-(3,4,5-trimethoxybenzyl)-N2-(3,3-diphenylpropyl)-ethylenediamine dimaleate]
2 | 2.1 | CN(CC=C(c1ccccc1)c1ccccc1)CCN(C)Cc1ccccc1 [N1,N2-dimethyl-N1-benzyl-N2-(3,3-diphenylallyl)-ethylenediamine dimaleate]
3 | 4.6 | CN(CCC(c1ccccc1)c1ccccc1)CCN(C)Cc1ccccc1 [N1,N2-dimethyl-N1-benzyl-N2-(3,3-diphenylpropyl)-ethylenediamine dimaleate]
4 | 5.2 | COc1ccc(C(O)(CCN(C)CCN(C)Cc2ccccc2)c2ccc(OC)cc2)cc1 [N1,N2-dimethyl-N1-benzyl-N2-(3,3-di-p-methoxyphenyl-3-hydroxypropyl)-ethylenediamine dimaleate]
